Data published in ChEMBL document CHEMBL1201862, “PubChem BioAssay data set” (2004).
Where a name gives a salt, the structure may show the parent alone. Active and inactive are the calls of the source.

Legend:
[1] = microbe, parasite or virus in culture; format: functional; details: Mycobacterium tuberculosis
cells = format: functional
[2] = target: FAD-linked sulfhydryl oxidase ALR (Homo sapiens, UniProt P55789); test: ALR-catalysed DTT oxidation blockers – biochemical, H2O2 detection, luminescence, cherry-pick, dose response (AID 493248)
Chain of FAD-linked sulfhydryl oxidase ALR (P55789 whole entry): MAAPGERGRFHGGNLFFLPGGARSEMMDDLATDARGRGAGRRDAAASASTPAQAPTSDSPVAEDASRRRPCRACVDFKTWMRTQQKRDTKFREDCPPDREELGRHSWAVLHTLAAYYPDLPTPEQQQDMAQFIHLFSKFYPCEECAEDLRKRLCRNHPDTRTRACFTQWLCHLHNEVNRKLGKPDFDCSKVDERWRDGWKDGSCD

Protein skinhead-1 = target: T1, Protein skinhead-1 (Caenorhabditis elegans, UniProt P34707); format: functional
T1 sequence (P34707 whole entry): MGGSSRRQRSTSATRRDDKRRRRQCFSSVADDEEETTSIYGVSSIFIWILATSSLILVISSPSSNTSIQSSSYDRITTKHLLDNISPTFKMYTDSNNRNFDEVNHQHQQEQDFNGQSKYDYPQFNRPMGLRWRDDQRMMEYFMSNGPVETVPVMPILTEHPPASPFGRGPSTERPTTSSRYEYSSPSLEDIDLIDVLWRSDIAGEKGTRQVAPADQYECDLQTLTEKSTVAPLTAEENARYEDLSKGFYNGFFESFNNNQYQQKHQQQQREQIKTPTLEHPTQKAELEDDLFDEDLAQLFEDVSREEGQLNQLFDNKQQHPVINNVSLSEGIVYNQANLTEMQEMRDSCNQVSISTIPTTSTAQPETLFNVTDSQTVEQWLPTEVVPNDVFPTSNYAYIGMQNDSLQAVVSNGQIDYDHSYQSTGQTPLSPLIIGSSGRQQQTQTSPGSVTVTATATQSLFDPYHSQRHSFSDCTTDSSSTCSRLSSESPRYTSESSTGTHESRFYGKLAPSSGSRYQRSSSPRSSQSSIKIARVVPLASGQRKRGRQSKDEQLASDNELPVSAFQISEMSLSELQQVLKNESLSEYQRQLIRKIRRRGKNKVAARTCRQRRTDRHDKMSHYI

[3] = target: T2, Heat shock factor protein 1 (Mus musculus, UniProt P38532); test: enhancement of HSF1-driven luciferase signal – cell-based, NIH3T3, luminescence, dose retest, confirmation (AID 435004); format: functional;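 further: stress induced by proteasome inhibitor MG132 added 30 min after compound; luciferase reporter driven by HSF1 response element in NIH3T3 cells; actives raise luminescence as potentiators of the MG132 stress response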
T2 sequence (P38532 whole entry): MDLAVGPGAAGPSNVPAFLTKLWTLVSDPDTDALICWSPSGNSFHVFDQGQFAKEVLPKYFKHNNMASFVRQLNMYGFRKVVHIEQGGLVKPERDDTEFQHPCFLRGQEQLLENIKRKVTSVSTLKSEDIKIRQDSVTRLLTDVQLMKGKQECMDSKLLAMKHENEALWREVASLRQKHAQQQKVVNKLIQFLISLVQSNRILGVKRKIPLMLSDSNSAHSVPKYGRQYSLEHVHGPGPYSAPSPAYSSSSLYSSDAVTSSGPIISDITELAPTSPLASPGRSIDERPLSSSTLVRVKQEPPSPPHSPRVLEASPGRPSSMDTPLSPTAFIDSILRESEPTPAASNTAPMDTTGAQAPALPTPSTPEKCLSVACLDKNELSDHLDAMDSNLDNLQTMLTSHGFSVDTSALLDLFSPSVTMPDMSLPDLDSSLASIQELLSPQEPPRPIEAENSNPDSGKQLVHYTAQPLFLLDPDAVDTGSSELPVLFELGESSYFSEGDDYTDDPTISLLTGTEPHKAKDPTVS

[4] = viability of uninfected HEp-2 cells – cell-based, HTS, cytotoxicity control for RSV inhibitor project, dose response (AID 2410); format: functional; details: human respiratory syncytial virus
[5] = viability of PTEN-deleted HCT116 cells – cell-based, HCT116 PTEN knockout, dose response (AID 1047); format: functional;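 further: HCT116 colon tumor cells with PTEN knocked out; cells exposed to compound for 60 hours before readout; potency for loss of cell viability measured by luminescence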
[6] = viability of HCT116 lacking mutant beta-catenin – cell-based, human colon tumor, dose response (AID 1045); format: functional;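 further: HCT116 colon tumor cells with beta catenin knocked out; cells exposed to compound for 60 hours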
[7] = Luminescence Cell-Based Dose Response HTS to Identify Activators of Luciferase Translation or Activity in H4 […] Cells. [Related pubchem assays: 1829 (Project Summary), 1814 (Primary HTS)]; format: functional
[8] = target: T3, RNA-binding protein pos-1 (Caenorhabditis elegans, UniProt G5EF15); test: disruptors of C. elegans POS-1 RNA interaction – biochemical, fluorescence polarization, dose response (AID 1964);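 further: purified POS-1 fused to maltose binding protein made in E. coli; potency of compounds blocking POS-1 binding to fluorescent RNA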
T3 sequence (G5EF15 whole entry): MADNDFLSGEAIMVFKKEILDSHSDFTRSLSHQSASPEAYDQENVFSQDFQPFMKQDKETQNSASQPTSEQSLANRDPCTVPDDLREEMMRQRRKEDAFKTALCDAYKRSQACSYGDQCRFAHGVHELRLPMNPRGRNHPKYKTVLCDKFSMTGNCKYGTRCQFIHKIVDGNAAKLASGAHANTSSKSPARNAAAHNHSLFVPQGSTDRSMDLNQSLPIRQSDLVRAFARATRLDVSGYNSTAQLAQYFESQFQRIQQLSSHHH

[9] = target: T4, Polyadenylate-binding protein 1 (Homo sapiens, UniProt P11940); test: MLLE binding blockers, Cy5 peptide tracer – biochemical, fluorescence polarization, Cy5-PAM2 peptide, secondary, miRNA deadenylation inhibitor project, dose response (AID 602260); format: functional; details: read-out: IC50_Mean
T4 sequence (P11940 whole entry, the tested form may be a part): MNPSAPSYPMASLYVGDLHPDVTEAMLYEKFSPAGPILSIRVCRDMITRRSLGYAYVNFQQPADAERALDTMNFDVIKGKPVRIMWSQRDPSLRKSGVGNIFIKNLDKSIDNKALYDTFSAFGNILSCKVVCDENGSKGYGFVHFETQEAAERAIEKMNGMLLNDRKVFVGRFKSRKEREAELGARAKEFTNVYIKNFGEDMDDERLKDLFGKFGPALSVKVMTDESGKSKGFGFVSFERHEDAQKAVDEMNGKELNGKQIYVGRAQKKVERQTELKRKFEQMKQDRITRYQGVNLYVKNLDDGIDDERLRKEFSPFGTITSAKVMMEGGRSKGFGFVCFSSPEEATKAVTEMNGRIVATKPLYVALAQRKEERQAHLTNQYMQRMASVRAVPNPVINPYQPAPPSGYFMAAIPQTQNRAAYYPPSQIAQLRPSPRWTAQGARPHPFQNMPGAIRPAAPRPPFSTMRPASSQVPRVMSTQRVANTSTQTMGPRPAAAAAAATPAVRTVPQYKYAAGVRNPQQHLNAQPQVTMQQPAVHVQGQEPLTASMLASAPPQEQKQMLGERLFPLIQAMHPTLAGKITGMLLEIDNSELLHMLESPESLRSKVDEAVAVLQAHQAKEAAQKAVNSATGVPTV

[10] = target: T4, Polyadenylate-binding protein 1; test: MLLE domain peptide-binding blockers, IC50 – biochemical, fluorescence polarization, FITC-PAM2 peptide, dose response (AID 602259); format: functional; details: read-out: IC50_Mean
[11] = target: T5, Zinc finger protein mex-5 (Caenorhabditis elegans, UniProt Q9XUB2); test: potency of MEX-5 RNA-binding blockers – biochemical, C. elegans, fluorescence polarization, dose response (AID 1960)
T5 sequence (Q9XUB2 whole entry): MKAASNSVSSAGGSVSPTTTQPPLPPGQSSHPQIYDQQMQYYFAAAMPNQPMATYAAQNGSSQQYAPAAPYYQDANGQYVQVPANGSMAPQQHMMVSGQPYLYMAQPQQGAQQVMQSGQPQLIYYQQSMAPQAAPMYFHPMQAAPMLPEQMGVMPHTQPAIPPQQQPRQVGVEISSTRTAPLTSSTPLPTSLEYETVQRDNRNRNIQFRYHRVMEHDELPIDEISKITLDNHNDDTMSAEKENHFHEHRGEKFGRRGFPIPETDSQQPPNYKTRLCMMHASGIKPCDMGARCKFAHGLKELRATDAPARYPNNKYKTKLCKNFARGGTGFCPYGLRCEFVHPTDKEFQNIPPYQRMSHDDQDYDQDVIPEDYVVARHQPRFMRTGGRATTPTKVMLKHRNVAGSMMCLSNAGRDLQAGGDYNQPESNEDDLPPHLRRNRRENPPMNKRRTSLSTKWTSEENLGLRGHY

[12] = target: T6, Rac GTPase-activating protein 1 (Homo sapiens, UniProt Q9H0H5); test: blockers of MgcRacGAP-driven Rac1 GTP hydrolysis – biochemical, ADP Hunter fluorescence, primary and confirmatory, confirmation (AID 624330); format: functional
T6 sequence (Q9H0H5 whole entry): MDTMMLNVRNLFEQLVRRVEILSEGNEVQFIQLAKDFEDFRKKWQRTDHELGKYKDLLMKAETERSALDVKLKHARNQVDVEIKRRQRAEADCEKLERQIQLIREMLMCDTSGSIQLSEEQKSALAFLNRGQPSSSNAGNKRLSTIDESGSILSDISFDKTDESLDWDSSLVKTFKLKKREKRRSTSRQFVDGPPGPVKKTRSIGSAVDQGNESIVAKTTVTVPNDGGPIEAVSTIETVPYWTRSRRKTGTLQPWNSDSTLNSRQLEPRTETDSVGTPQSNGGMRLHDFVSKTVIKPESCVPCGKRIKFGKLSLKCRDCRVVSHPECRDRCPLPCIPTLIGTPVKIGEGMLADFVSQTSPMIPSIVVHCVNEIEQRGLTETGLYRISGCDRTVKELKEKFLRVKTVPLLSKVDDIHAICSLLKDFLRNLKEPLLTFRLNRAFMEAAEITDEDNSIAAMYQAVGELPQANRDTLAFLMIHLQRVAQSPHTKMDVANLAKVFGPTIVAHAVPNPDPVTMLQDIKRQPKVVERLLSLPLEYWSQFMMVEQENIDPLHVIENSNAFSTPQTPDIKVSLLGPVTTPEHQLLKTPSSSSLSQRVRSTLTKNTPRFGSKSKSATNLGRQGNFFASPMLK

Cytochrome P450 3A4 = Cytochrome P450 3A4 (Homo sapiens, UniProt P08684);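 further: CYP3A4 tested as one member of a cytochrome P450 panel screen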
Chain of Cytochrome P450 3A4 (P08684 whole entry): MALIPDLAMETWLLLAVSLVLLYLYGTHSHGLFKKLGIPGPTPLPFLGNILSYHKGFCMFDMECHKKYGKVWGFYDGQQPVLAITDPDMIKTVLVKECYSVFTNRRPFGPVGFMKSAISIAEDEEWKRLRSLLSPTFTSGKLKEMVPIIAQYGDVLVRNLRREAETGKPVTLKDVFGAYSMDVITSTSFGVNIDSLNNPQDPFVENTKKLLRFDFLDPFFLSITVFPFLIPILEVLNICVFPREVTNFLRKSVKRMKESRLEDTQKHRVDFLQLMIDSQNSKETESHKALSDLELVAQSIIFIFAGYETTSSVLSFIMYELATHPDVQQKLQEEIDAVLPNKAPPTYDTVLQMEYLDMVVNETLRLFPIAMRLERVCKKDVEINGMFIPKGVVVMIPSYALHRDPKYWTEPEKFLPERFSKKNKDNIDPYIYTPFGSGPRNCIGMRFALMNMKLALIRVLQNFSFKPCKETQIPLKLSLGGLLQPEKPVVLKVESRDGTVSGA

Cytochrome P450 2C9 = Cytochrome P450 2C9 (Homo sapiens, UniProt P11712)
Chain of Cytochrome P450 2C9 (P11712 whole entry): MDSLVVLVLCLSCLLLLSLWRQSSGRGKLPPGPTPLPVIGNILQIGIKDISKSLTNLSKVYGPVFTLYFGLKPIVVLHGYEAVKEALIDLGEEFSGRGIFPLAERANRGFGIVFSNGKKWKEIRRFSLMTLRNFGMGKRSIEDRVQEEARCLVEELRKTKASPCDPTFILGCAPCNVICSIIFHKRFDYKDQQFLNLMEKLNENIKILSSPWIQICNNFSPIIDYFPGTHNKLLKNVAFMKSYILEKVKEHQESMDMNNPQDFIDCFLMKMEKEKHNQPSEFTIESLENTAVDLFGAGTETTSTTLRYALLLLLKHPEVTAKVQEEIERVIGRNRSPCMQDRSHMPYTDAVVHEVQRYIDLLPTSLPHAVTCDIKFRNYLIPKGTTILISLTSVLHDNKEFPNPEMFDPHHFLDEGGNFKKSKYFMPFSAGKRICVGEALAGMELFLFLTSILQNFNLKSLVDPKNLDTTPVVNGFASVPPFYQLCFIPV

Cytochrome P450 1A2 = target: T7, Cytochrome P450 1A2 (Homo sapiens, UniProt P05177);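 further: PubChem cytochrome P450 panel assay, CYP1A2 panel member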
T7 sequence (P05177 whole entry): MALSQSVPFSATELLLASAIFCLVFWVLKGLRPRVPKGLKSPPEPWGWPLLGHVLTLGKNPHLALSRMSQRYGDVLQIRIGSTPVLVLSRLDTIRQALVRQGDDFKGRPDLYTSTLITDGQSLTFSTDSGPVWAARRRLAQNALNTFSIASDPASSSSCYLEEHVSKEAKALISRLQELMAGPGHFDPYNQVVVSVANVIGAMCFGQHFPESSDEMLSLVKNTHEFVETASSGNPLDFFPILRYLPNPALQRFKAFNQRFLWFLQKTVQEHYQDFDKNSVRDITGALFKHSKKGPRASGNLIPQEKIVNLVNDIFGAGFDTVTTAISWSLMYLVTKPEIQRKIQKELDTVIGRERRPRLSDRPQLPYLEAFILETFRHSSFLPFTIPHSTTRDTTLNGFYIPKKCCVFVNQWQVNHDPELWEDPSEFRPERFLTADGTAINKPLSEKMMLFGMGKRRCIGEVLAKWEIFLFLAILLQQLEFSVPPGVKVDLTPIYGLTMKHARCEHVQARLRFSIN

Cc1ccc(NC(=S)N(CCCN2CCCC2)Cc2cccn2Cc2ccc(Cl)cc2)cc1C
CC50 [1]: 17.7 µM (active)

COc1ccc(C(=O)OCn2nnc3ccccc3c2=O)cc1[N+](=O)[O-]
IC50 (cells): 7.55 µM (active)

Nc1n[nH]c(N2CCN(c3ccc(Cl)cc3)CC2)n1
AC50 [2]: 0.325 µM (active)

Cn1/c(=N/C(=O)C2CC2)sc2cc(F)cc(F)c21
IC50 (Protein skinhead-1): > 100 µM (inactive)

COC(=O)C1CCN(C(=O)Cc2c(OC)ccc3cc(Br)ccc23)CC1
EC50 [3]: 68.2 µM (active)

COc1ccccc1Nc1nc(C2(C)CCC(=O)O2)cs1 (configuration not stated)
AC50 [2]: 4.38 µM (active)

OCCOCCn1c(CCNc2nc(-c3ccc(Cl)cc3)cs2)nc2cc(Cl)c(Cl)cc21
CC50 [4]: 14.3 µM (active)

CCCCn1c(SCc2ncc(-c3ccccc3)o2)nc2cc(S(N)(=O)=O)ccc21
EC50 [5]: 26 µM (active) | CC50 [1]: > 40 µM (active) | EC50 [6]: 27.4 µM (active)

NNCCc1ccccc1 [PHENELZINE SULFATE]
AC50 [2]: 7.5 µM (active)

N#Cc1c(-c2ccc(Cl)cc2)ccn2nc(C3CCCCC3)nc12
EC50 [7]: 6.98 µM (active)

CCOc1cc(/C=N/NC(N)=O)cc(Br)c1OCc1ccccc1
CC50 [4]: 19.4 µM (active)

COc1cc(NC(=O)c2ccc(C(C)(C)C)cc2)c(OC)cc1NC(=O)CN1CCCCC1
CC50 [1]: > 40 µM (active)

Cn1nnnc1SCC(=O)N1CCN(c2cccc(Cl)c2)CC1
IC50 (Protein skinhead-1): > 100 µM (inactive)

COc1ccccc1N1CCN(C(=O)CCNS(=O)(=O)c2cc(Br)cnc2N)CC1
AC50 [2]: 11.8 µM (active)

O=C1CCC(/C=C/c2ccccc2)=NN1Cc1ccc(Cl)c(Cl)c1
CC50 [4]: 24.4 µM (active)

C(=C\c1nc(-c2ccncc2)no1)/c1ccccc1
IC50 (Protein skinhead-1): 12.4 µM (active)

CCN(CC)C(=O)Oc1ccc(Br)c2ccccc12
IC50 (Protein skinhead-1): > 100 µM (inactive)

CCOC(=O)c1cc(-c2cccc([N+](=O)[O-])c2)on1
IC50 (cells): 10.3 µM (active)

CCN(CC)Cc1c(-c2ccccc2)nc2ccc(C)cc2c1O
AC50 [2]: 1.77 µM (active)

CC(C)Cc1nnc(NC(=O)CCS(=O)(=O)c2ccc(Cl)cc2)s1
IC50 (cells): 36 µM (active)

COc1ccc(NC(=O)C2Cc3ccccc3CN2C(=O)c2ccccc2)cn1 (configuration not stated)
EC50 [8]: 25.1 µM (active) | IC50 [9]: > 66 µM (inactive) | IC50 [10]: 13.1 µM (active) | EC50 [11]: > 300 µM (inconclusive)

COc1cccc(/C=N/N2C(=O)NC3(CCCCC3)C2=O)c1O
AC50 [2]: 9.34 µM (active)

COc1ccc(C(=O)COC(=O)COc2ccc(C)c(C)c2)cc1
IC50 (cells): > 50 µM (active)

O=C(NCc1cccs1)C(=O)NCC(c1ccco1)N1CCN(c2ccccc2)CC1 (configuration not stated)
AC50 [2]: 0.01 µM (active)

C=Cc1cccc(NC(=O)COc2ccccc2)c1
IC50 (cells): > 50 µM (active)

CSc1nsc(/C=C/Nc2ccc(O)cc2C)c1C#N
CC50 [1]: > 40 µM (active)

Cc1cccc(NC(=O)Cc2coc3ccc4ccccc4c23)n1
CC50 [4]: 33.8 µM (active)

O=C(Nc1ccc(-c2nnc(-c3ccccc3)o2)cc1)c1ccc(Br)o1
IC50 (Protein skinhead-1): 76.3 µM (inactive)

O=C(CCNc1ccc(Cl)cc1)c1cccs1
IC50 (cells): 25.5 µM (active)

COc1ccc(CN2CCN(c3ccccc3F)CC2)cc1O
IC50 (Protein skinhead-1): > 100 µM (inactive)

COc1cc(/C(C)=N/N2CCN(Cc3ccc(C)cc3)CC2)ccc1O
IC50 [12]: 271 µM (active) | AC50 [2]: 7.66 µM (active)

COCC(=O)NCc1ccc2c(c1)cc(C)n2C
IC50 (Protein skinhead-1): > 100 µM (inactive)

CCOC(=O)c1cnn(-c2ccccc2)c1-n1cccc1C(=O)C(=O)Nc1ccccc1C(F)(F)F
CC50 [4]: 24.1 µM (active) | AC50 (Cytochrome P450 3A4): 4.47 µM (inconclusive) | AC50 (Cytochrome P450 2C9): 5.62 µM (inconclusive) | AC50 (Cytochrome P450 1A2): 14.1 µM (inconclusive)

COC(=O)c1ccc(-c2ccco2)n1Cc1nc(-c2ccc(OC)c(OC)c2)oc1C
CC50 [4]: 34 µM (active)

Oc1ccccc1/N=C/c1ccc[nH]1
CC50 [1]: > 40 µM (active)

C/N=c1\scc(-c2ccccc2Br)n1/N=C/c1ccc[nH]1
CC50 [1]: > 40 µM (active)

COc1ccc(-c2ccnc3nc(N4CCN(c5ccccc5)CC4)nn23)cc1
CC50 [1]: > 40 µM (active)

COc1cccc(CNC(=O)CCNC(=O)N2CCn3c2nc2ccccc23)c1
AC50 [2]: 1.09 µM (active)
